Consider two molecules from US10538545B2 (priority 2017, dated 2020).

One data set concerns the target T1, metmyoglobin (metMb) (Equus caballus, UniProt P68082).
T1 construct: purchased TCl
Kind of data set: Reaction of DNIC with metmyoglobin (nitroxyl transfer, UV-vis). The class given is biochemical. Conditions: 10 μM DNIC + 10 μM metMb, 25 mM phosphate buffer pH 7.4. The protocol:
A typical procedure for nitroxyl-transfer reaction of DNIC-2 and metmyoglobin was described below using DNIC-2a as an example, whereas reaction of DNIC-2b/DNIC-2d and metMb follows the same procedure. 10 μM of metMb in 3.3 mL of 25 mM phosphate buffer (pH 7.4) was loaded in a 4-mL quartz cuvette and sealed with rubber septum under anaerobic N2 atmosphere. 10 μM of DNIC-2a (13.0 μL of 2.5 mM stock solution of DNIC-2a in THF) was added into this aqueous solution, which is thermostated at 25° C. UV-vis spectra of this reaction solution were measured after this reaction solution was incubated for 10 minutes.
A typical procedure for reaction of DNIC-1 and metmyoglobin was described below. To a 4-mL quartz cuvette containing 10 μM of metMb in 3.3 mL of 25 mM phosphate buffer (pH 7.4), 10 μM of DNIC-1, derived from 13.0 μL of 2.5 mM stock solution of DNIC-1 in THF was added via gas-tight syringe at room temperature. The reaction solution was incubated at ambient temperature for 8 hours. No change of UV-vis spectra for this reaction solution was observed.
In example 1, the reaction of a variety of DNICs with metmyoglobin was investigated so as to verify the universal role of bridging ligands, thiolate vs. pyrazolate, on dictating the NO^−-transfer reactivity.

For data set [1], the system named is soluble guanylate cyclase (sGC). Also noted: species or system C. elegans. Conditions: in vivo.
The subject of data set [2] is Tg (kdr:EGFP) zebrafish embryos. Conditions: in vivo.
Data set [3] has as its system AB (wild type) zebrafish embryos. Conditions: in vivo.
The next data set has as its system WT-AB zebrafish embryos. Conditions: in vivo.

T1 sequence (P68082 2-154 limits assumed): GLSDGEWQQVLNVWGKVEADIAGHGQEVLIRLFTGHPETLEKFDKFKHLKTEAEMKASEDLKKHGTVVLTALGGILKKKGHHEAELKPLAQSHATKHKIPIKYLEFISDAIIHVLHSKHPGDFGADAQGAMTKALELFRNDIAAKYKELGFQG

In the case of [(NO)2Fe(μ-^NH2Pyr)2Fe(NO)2] [DNIC-2a], at metmyoglobin (metMb), the “nitroxyl-transfer reactivity toward metmyoglobin (formation of MbNO, shift of UV-vis bands)” value is reported as “nitroxyl transfer from DNIC-2a to metmyoglobin”. Besides, the “increase of the GFP fluorescence signal in CX3553 worms” value in data set [1] was “about 5.7 fold”. Besides, the “Vessel Diameter (dorsal aorta diameter)” value in data set [2] is listed as 25.6±0.6 μm. Further, in data set [3], the “Cardiac Output” value worked out at 48.4 ± 4.5 nL/min, the “Fractional Shortening” value was found to be 0.28 ± 0.02, the “Heart Rate” value came out at 145 ± 7 bpm and the “Short Axis Diameter ED(Dd)” value is given as 83.3 ± 2.5 μm. In data set [3], the “Short Axis Diameter ES(Ds)” value is on record as 59.6 ± 1.7 μm, the “Ventricular Volume ED” value came to 0.55 ± 0.03 nL, the “Ventricular Volume ED-ES” value came to 0.34 ± 0.02 nL and the “Ventricular Volume ES” value was found to be 0.21 ± 0.02 nL. In data set [3], the “change of diameter of heart short-axis at end systole (ES)” value is “significant decrease”, the “enhancement of cardiac output” value is “about 2 fold” and the “enhancement of fractional shortening” value is “about 2 fold”. Further, in the data set with WT-AB zebrafish embryos, the “Survival rate of zebrafish, Day 3” value turned out to be 100 ± 0.0%; the “Survival rate of zebrafish, Day 4” value came to 99.6 ± 0.7%; the “Survival rate of zebrafish, Day 5” value is listed as 98.4 ± 2.7%; the “acute toxicity on zebrafish embryo” value is recorded as “no acute toxicity”.

With `CNC[C@H](O)c1ccc(O)c(O)c1` [Epinephrine, epinephrine, reference compound], in data set [3], the “Cardiac Output” value came to 37.4 ± 6.1 nL/min, the “Fractional Shortening” value is on record as 0.25 ± 0.04, the “Heart Rate” value is 144 ± 8 bpm and the “Short Axis Diameter ED(Dd)” value is listed as 80.9 ± 1.4 μm. Moreover, in data set [3], the “Short Axis Diameter ES(Ds)” value stood at 61.0 ± 2.5 μm, the “Ventricular Volume ED” value is given as 0.46 ± 0.05 nL, the “Ventricular Volume ED-ES” value was determined as 0.26 ± 0.05 nL and the “Ventricular Volume ES” value came out at 0.20 ± 0.03 nL.
